Laboratory results: patent US20160311788A1, “Antifouling Compounds And Use Thereof” (National University of Singapore, priority 2008, published 2016)
In brackets after ≈: the same amount, converted by molar mass. Where two headings read alike, the source gives them in different places.

Assays:
[1] = tested on: marine bacteria strain S1; experiment: disc inhibition assay, strain S1; format: cell-based, Rhodovulum iodosum; conditions: strain 1, 50 μg of compound per disc
Experimental: (§1) The disc inhibition assay was used. This assay is a conventional method routinely used for screening antibacterial compounds to determine degree of susceptibility to antibacterial compounds. The diameter of the zone of inhibition is proportional to the degree of susceptibility of the bacterial strain. The compounds were tested against 13 strains of marine bacteria isolated from Singapore coastal waters.
(§2) 13 strains of marine bacteria were isolated from fouling communities located in the coastal waters around Singapore. These were characterized in earlier studies and reported in Teo et al. (U.S. patent application Ser. No. 11/265,833) and Choong et al (in prep). In addition, four reference bacterial strains were added tested: Escherichia coli (Strain K12, ATCC 15222), E. coli (strain DH5a), Pseudomonas aeruginosa (strain LMG 12228; ATCC 15692) and P. putida (strain KT2440; ATCC 47054). All the bacteria were also tested against five antibiotics: ampicillin (AMP), tetracycline (TETR), erythromycin (ERY), chloramphenicol (CHL) and streptomycin (STREP).
(§3) Disks comprising the compounds to be tested were prepared as follows. The antibacterial assay, the pure compounds were made up to a concentration of 2 mgml^−1 in DMSO. 25 μl of the stock was pipetted onto each 6 mm sterile disc (Macherey-Nagel #484000) to obtain 50 μg of compound per disc. Equivalent volume of DMSO was used inoculated for the control.
(§4) For all disk inhibition assays, bacterial cultures were grown in marine broth (Pronadisa #1217.00). Sterile swabs dipped into the cultures were used to inoculate Marine Agar plates with a bacterial lawn by smearing the culture over the surface. After inoculating the plates, discs with antibiotics, pharmaceuticals or control blanks were placed on each plate. Each concentration of antibiotic or pharmaceutical was tested with two replicates. After the disks were placed on the agar surface, plates were incubated overnight in the dark at 35° C. After incubation, plates were examined for zones of inhibition or clearing around control and treated disks. The diameter of any zone of clearing or inhibition was measured using Vernier calipers. There were two replicates per treatment, and the average was taken.

[2] = tested on: marine bacteria strain S3; experiment: disc inhibition assay, strain S3; format: cell-based, Erythrobacter aquimaris; conditions: for zone of inhibition at 50 µg/disc: Qipengyuania aquimaris, S3, 24 h
Experimental: as §1, §2, §3, §4

[3] = tested on: marine bacteria strain S4; experiment: disc inhibition assay, strain S4; format: cell-based, Bacillus algicola; conditions: strain 4, 50 μg of compound per disc; for zone of inhibition at 50 µg/disc: Guptibacillus algicola, S4, 24 h, read-out: zone of inhibition
Experimental: as §1, §2, §3, §4

[4] = tested on: marine bacteria strain S9; experiment: disc inhibition assay, strain S9; format: cell-based, Bacillus algicola; conditions: strain 9, 50 μg of compound per disc; for zone of inhibition at 50 µg/disc: Guptibacillus algicola, S9, 24 h, read-out: zone of inhibition
Experimental: as §1, §2, §3, §4

[5] = tested on: marine bacteria strain S10; experiment: disc inhibition assay, strain S10; format: cell-based, Halobacillus trueperi; conditions: strain 10, 50 μg of compound per disc
Experimental: as §1, §2, §3, §4

[6] = tested on: marine bacteria strain S14; experiment: disc inhibition assay, strain S14; format: cell-based, Vibrio probioticus; conditions: strain 14, 50 μg of compound per disc
Experimental: as §1, §2
(§5) Disks comprising the compounds to be tested were prepared as follows. The antibacterial assay, the pure compounds were made up to a concentration of 2 mgml^−1 in DMSO. […] Equivalent volume of DMSO was used inoculated for the control.
as §4

[7] = tested on: marine bacteria strain S16; experiment: disc inhibition assay, strain S16; format: cell-based, Pseudoalteromonas piscicida; conditions: for zone of inhibition at 50 µg/disc: Pseudoalteromonas piscicida, S16, 24 h
Experimental: as §1, §2, §3, §4

[8] = tested on: marine bacteria strain S17; experiment: disc inhibition assay, strain S17; format: cell-based, Gordonia terrae; conditions: strain 17, 50 μg of compound per disc
Experimental: as §1, §2, §3, §4

[9] = tested on: marine bacteria strain S18; experiment: disc inhibition assay, strain S18; format: cell-based, Microbacterium esteraromaticum; conditions: strain 18, 50 μg of compound per disc
Experimental: as §1, §2, §5, §4

[10] = tested on: marine bacteria strain S27; experiment: disc inhibition assay, strain S27; format: cell-based, Tenacibaculum lutimaris; conditions: strain 27, 50 μg of compound per disc
Experimental: as §1, §2, §3, §4

[11] = tested on: marine bacteria strain S28; experiment: disc inhibition assay, strain S28; format: cell-based, Arthrobacter protophormial; conditions: strain 28, 50 μg of compound per disc
Experimental: as §1, §2, §3, §4

[12] = tested on: marine bacteria strain S29; experiment: disc inhibition assay, strain S29; format: cell-based, Bacillus hwajinpoensis; conditions: strain 29, 50 μg of compound per disc
Experimental: as §1, §2, §3, §4

[13] = tested on: marine bacteria strain S30; experiment: disc inhibition assay, strain S30; format: cell-based, Bacillus borophilicus; conditions: strain 30, 50 μg of compound per disc
Experimental: as §1, §2, §3, §4

[14] = tested on: Stage II nauplii of Balanus amphitrite; experiment: barnacle toxicity assay; format: in vivo
Experimental: (§6) Pure compounds were suspended in DMSO and sonicated to obtain a stock solution of 50 mg ml^−1 in DMSO. This stock solution is stored at −20° C. in 4 ml amber screw cap vials. For the bioassays, a small volume of stock solution was added to 1 μm filtered seawater in a glass scintillation vial. This suspension was then sonicated around 10 minutes. Serial dilutions were generated to the required range of concentrations. Serial dilution of the equivalent amounts of DMSO in seawater was used as the control.
(§7) The barnacle bioassay method used follows from the method first introduced by Rittschof et al. (1992), and subsequently by other authors (Willemsen et al., 1998). This method is now standard practice for many antifouling screening of novel compounds.
Toxicity assays were modified from Rittschof et al. (1992). Stage II naupliar larvae used in tests were obtained from Balanus amphitrite adults collected from inter-tidal rock walls at Kranji mangrove, Singapore. Larvae were collected from a container of adults by attraction to a point source of light and transferred to 500 ml of fresh seawater. Next, larvae were re-concentrated with a fiber optic light and added to assays.
Duplicate assays were conducted in 2 ml glass vials (La Pha Pack® PN 11-14-0544) in 1 ml of filtered seawater for 22 to 24 hours. The assays were repeated for confirmation. There were two sets of controls, a blank control consisting of 3 tubes of seawater only, and DMSO control consisting of the equivalent dilution series with DMSO without compound). For the compounds, there were 3 tubes of each for each test concentration. The assay was initiated by addition of barnacle naupliar in 50 μl of seawater. After 22 to 24 hours of incubation at 25-27° C. solutions containing test animals were transferred to a Bogorov tray and scored as living or dead. Moribund larvae were scored as dead. Results were confirmed by repeating the assay. Data were combined and the concentration that caused 50% mortality (LD50) was calculated by probit analysis using a basic computer program (Libermann, 1983). If data were not appropriate for probit analysis, the LD50 was estimated from graphed data.

[15] = tested on: cyprids of Balanus amphitrite; experiment: barnacle settlement assay; format: in vivo; conditions: for IC50: Amphibalanus amphitrite, 24 h, concentration that caused 50% settlement inhibition, 24 hours, cyprids; for percentage of cyprids that settled: after 24 hours incubation, averaged over two trials
Experimental: as §6, §7
Barnacle settlement assays were based on methodology from Rittschof et al. (1992). Barnacle larvae from field-collected adults were reared on an algal mixture of 1:1 v/v of Tetraselmis suecica and Chaetoceros muelleri at 25° C., at approximately 5×10^5 cells per ml density. On this regime, larvae metamorphose to cyprids in 5 days. These cyprids were aged at 4° C. for 2-3 days, and 45-70% settlement after 24 hours (Willemsen et al., 1998).
Settlement tests were conducted in 7 ml neutral glass vials (Samco® T1 03N1) 34 mm by 23 mm diameter, with 20-40 cyprids per well. Test solutions were made up to twice the required final concentration. 0.5 ml of test solution was added into each well, and cyprids were transferred into each well in 0.5 ml of seawater. Assays were done in triplicate. As before, there were two sets of controls, a blank control consisting 3 tubes of seawater only, and DMSO control consisting of the equivalent dilution series with DMSO without compound. After 24 hours, larvae that had attached and metamorphosed were enumerated and the result expressed as percentage settlement. Larvae not attached were scored as not settled. The assays were repeated and the concentration that caused 50% settlement inhibition (ED50) was determined by pro bit analysis using a basic computer program (Lieberman, 1983), or by estimation from graphed data.

[16] = strain 16, 50 μg of compound per disc
[17] = Table 3(a), concentration that caused 50% mortality, 22 to 24 hours, Stage II nauplii
[18] = strain 3, 50 μg of compound per disc
[19] = Table 3(a), read-out: ED50 (the source's name)
[20] = strain 3, 50 μg of compound per disc, read-out: zone of inhibition
[21] = Table 3(b), highest concentration tested 25 μg/ml

| SMILES | zone of inhibition [1] | zone of inhibition [3] | zone of inhibition [4] | zone of inhibition [5] | zone of inhibition [6] | zone of inhibition [7, 16] | zone of inhibition [8] | zone of inhibition [9] | zone of inhibition [10] | zone of inhibition [11] | zone of inhibition [12] | zone of inhibition [13] | LD50 [14, 17] | IC50 [15, 19] | LD50 [14, 21] | percentage of cyprids that settled ([15]; 0.2 ug/ml) | percentage of cyprids that settled ([15]; 1 ug/ml) | percentage of cyprids that settled ([15]; 5 ug/ml) | percentage of cyprids that settled ([15]; 25 ug/ml) | other results |
| --- | --- | --- | --- | --- | --- | --- | --- | --- | --- | --- | --- | --- | --- | --- | --- | --- | --- | --- | --- | --- |
| CN(C)C(=O)C(c1ccccc1)c1ccccc1 [Compound 3.1, diphenamid, reference compound] | − | − | − | − | − | − | − | − | − | − | − | − | > 50 µg/mL |  |  |  |  |  |  | zone of inhibition at 50 µg/disc [2]: 2 to 5 mm; IC50 ([15]; read-out: ED50, Table 3(a)): 15.1 µg/mL (≈ 63.1 µM) |
| OC1(c2ccc(Cl)cc2)CCNCC1 [Compound 3.4] | − |  |  | − | − |  | − | − | − | − | − | − | 8.41 µg/mL | 43.9 µg/mL (≈ 208 µM) |  |  |  |  |  | zone of inhibition [2, 18]: −; zone of inhibition at 50 µg/disc [3]: 2 to 5 mm; zone of inhibition at 50 µg/disc [4]: 2 to 5 mm; zone of inhibition at 50 µg/disc ([7]; strain 16, 50 μg of compound per disc, read-out: zone of inhibition): 2 to 5 mm |
| O=C(C(c1ccccc1)c1ccccc1)N1CCCCC1 [Compound 4.1, 2,2-Diphenyl-1-(piperidin-1-yl)ethanone] | − |  |  |  | − | − |  |  |  |  | − | − | > 50 µg/mL | 2.35 µg/mL (≈ 8.41 µM) |  |  |  |  |  | zone of inhibition at 50 µg/disc [2, 20]: 5 to 10 mm; zone of inhibition at 50 µg/disc [3]: 2 to 5 mm; zone of inhibition at 50 µg/disc [4]: 2 to 5 mm; zone of inhibition at 50 µg/disc ([5]; Halobacillus trueperi, S10, 24 h, read-out: zone of inhibition): 2 to 5 mm; zone of inhibition at 50 µg/disc ([8]; Gordonia terrae, S17, 24 h, read-out: zone of inhibition): 2 to 5 mm; zone of inhibition at 50 µg/disc ([9]; Microbacterium esteraromaticum, S18, 24 h, read-out: zone of inhibition): 2 to 5 mm; zone of inhibition at 50 µg/disc ([10]; Tenacibaculum lutimaris, S27, 24 h, read-out: zone of inhibition): 2 to 5 mm; zone of inhibition at 50 µg/disc ([11]; Arthrobacter, S28, 24 h, read-out: zone of inhibition): 2 to 5 mm; naupliar toxicity in words ([14]; in vivo): no observable naupliar toxicity; anti-settlement activity in words [15]: displayed anti-settlement activity |
| CN1CCC(O)(c2ccccc2)CC1 [Compound 4.4] | − | − | − | − | − |  | − | − | − | − | − | − | 12.35 µg/mL | 5.98 µg/mL (≈ 31.3 µM) |  |  |  |  |  | zone of inhibition [2, 18]: −; zone of inhibition at 50 µg/disc [7]: 2 to 5 mm |
| O=C(C(c1ccccc1)c1ccccc1)N1CCC(O)(c2ccccc2)CC1 [Compound 4.5] | − | − | − | − | − | − | − | − | − | − | − | − | > 50 µg/mL | 6.48 µg/mL (≈ 17.4 µM) |  |  |  |  |  | zone of inhibition at 50 µg/disc [2, 20]: 5 to 10 mm |
| CCCCCCC(CCCC)C(=O)N1CCCCC1 (stereo not drawn) [Compound 12.8] |  |  |  |  |  |  |  |  |  |  |  |  |  | < 10 µg/mL | 3.35 µg/mL | 25.82% | 8.62% | 0% | 0% |  |
| CCCCCCCCCCC(CCCC)C(=O)N1CCCCC1 (stereo not drawn) [Compound 12.9] |  |  |  |  |  |  |  |  |  |  |  |  |  |  | >25 µg/mL | 28.14% | 10.56% | 1.94% | 1.32% |  |
| CCCCCCCCCCC(CCCCCCCC)C(=O)N1CCCCC1 (stereo not drawn) [Compound 12.10] |  |  |  |  |  |  |  |  |  |  |  |  |  |  | >25 µg/mL | 12.5% | 13.00% | 11.40% | 17.88% |  |
